Among the test systems are 786-0 renal; RPMI-8226 leukemia; NCI-H522 lung; NCI-H460 lung; SK-MEL-5 melanoma; HT29 colon; UACC-62 melanoma; SK-MEL-2 melanoma; A498 renal; MDA-MB-231 breast.
Common to all, as to experiment: DTP human tumour cell line panel, 48 h

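Step 1: Grow cells in 96-well plates. Step 2: Expose to compound for 48 hours at 5 concentrations. Step 3: Interpolate endpoints linearly; if unreached, use highest concentration. GI50 marks 50% less growth. TGI denotes the concentration required for complete inhibition of growth.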 Bounds are passed on as bounds.

With `CC(=O)[CH-]C(C)=O.CC(=O)[CH-]C(C)=O.[O-]c1ccccc1.[O-]c1ccccc1.[Ti+4]`, the GI50 with 786-0 renal, in the assay on RPMI-8226 leukemia, in the assay with NCI-H522 lung, in the assay on NCI-H460 lung, in the assay with SK-MEL-5 melanoma and in the assay with HT29 colon was greater than 100 µM in each case. In addition, the GI50 in the assay on UACC-62 melanoma and in the assay on SK-MEL-2 melanoma was greater than 100 µM throughout. Further, the TGI in the assay with 786-0 renal, in the assay with RPMI-8226 leukemia, with NCI-H522 lung, with NCI-H460 lung, in the assay on SK-MEL-5 melanoma and in the assay on HT29 colon was greater than 100 µM in each case. Also, the TGI in the assay on UACC-62 melanoma and in the assay with SK-MEL-2 melanoma was greater than 100 µM throughout.

In the case of `Cc1ccccc1NC(=O)CSc1nnc(-c2ccc(N=Cc3ccc(Cl)cc3)cc2)o1`, the total growth inhibition concentration (TGI) with 786-0 renal, in the assay on RPMI-8226 leukemia, in the assay on NCI-H460 lung, in the assay on SK-MEL-5 melanoma, with HT29 colon and with UACC-62 melanoma was greater than 100 µM in each case. This compound registered a TGI with SK-MEL-2 melanoma greater than 100 µM.

As for `O=C1NC(O)n2c(=O)[nH]c(=O)n21` (stereo not given), the TGI in the assay on 786-0 renal, with RPMI-8226 leukemia, in the assay with NCI-H522 lung, in the assay with NCI-H460 lung, in the assay with SK-MEL-5 melanoma and with HT29 colon was greater than 100 µM each time. For the same compound, the TGI with UACC-62 melanoma and in the assay on SK-MEL-2 melanoma was greater than 100 µM in each case.

Regarding `CCCCNC(c1ccc(Cl)cc1)C(O)c1ccc(Cl)cc1` (stereo not given), the GI50 in the assay with 786-0 renal was 1.59 µM; with RPMI-8226 leukemia, 2.09 µM; with NCI-H522 lung, 1.56 µM; in the assay on NCI-H460 lung it was 1.76 µM; in the assay with SK-MEL-5 melanoma, 1.73 µM; in the assay with HT29 colon it was 0.792 µM. The figures for the GI50 in the assay with UACC-62 melanoma, with SK-MEL-2 melanoma and in the assay on A498 renal were 1.49 µM, 1.81 µM and 2.29 µM, respectively. In addition, the TGI was 3.95 µM in the assay on 786-0 renal; 5.51 µM with RPMI-8226 leukemia; 3.51 µM with NCI-H522 lung; 4.41 µM with NCI-H460 lung; 3.2 µM with SK-MEL-5 melanoma; 2.74 µM in the assay on HT29 colon. The TGI in the assay with UACC-62 melanoma stood at 3.18 µM; in the assay with SK-MEL-2 melanoma, 3.68 µM; in the assay with A498 renal it was 5.57 µM.

Consider `c1ccc2c(c1)[nH]c1c2nc2ccccn21`, for which the TGI in the assay with 786-0 renal, in the assay with RPMI-8226 leukemia, with NCI-H522 lung, in the assay on NCI-H460 lung, in the assay with SK-MEL-5 melanoma and with HT29 colon was greater than 100 µM each time. In addition, the TGI with UACC-62 melanoma, in the assay on SK-MEL-2 melanoma and in the assay on A498 renal was greater than 100 µM in each case.

Turning to `O=C1NC(O)c2cc3ccccc3cc2O1` (stereo not given), the TGI in the assay with 786-0 renal, in the assay on MDA-MB-231 breast, in the assay with RPMI-8226 leukemia, with NCI-H522 lung, with NCI-H460 lung and with SK-MEL-5 melanoma was greater than 100 µM in each case. Further, the TGI in the assay with HT29 colon is greater than 100 µM; in the assay on UACC-62 melanoma, 48.5 µM.

`COc1cc2c(cc1C)NC(=O)/C2=C/c1ccnc2ccccc12`: the GI50 is 35.3 µM in the assay on 786-0 renal; 9.49 µM with MDA-MB-231 breast; 19.7 µM in the assay with RPMI-8226 leukemia; 8.35 µM in the assay on NCI-H522 lung; 15.3 µM in the assay on NCI-H460 lung; 7.89 µM in the assay on SK-MEL-5 melanoma. Besides, the GI50 is 13.1 µM in the assay on UACC-62 melanoma and 26.3 µM with SK-MEL-2 melanoma. The TGI was greater than 50 µM with 786-0 renal; 32.6 µM in the assay on MDA-MB-231 breast; greater than 50 µM in the assay on RPMI-8226 leukemia; 41.7 µM with NCI-H522 lung; greater than 50 µM in the assay with NCI-H460 lung; 31.3 µM in the assay on SK-MEL-5 melanoma. In addition, the TGI with UACC-62 melanoma and in the assay on SK-MEL-2 melanoma was greater than 50 µM in each case.

For `Cc1cc(=O)[nH]c(NNC(C#N)c2cccc([N+](=O)[O-])c2)n1` (stereo not given), the TGI in the assay with 786-0 renal, in the assay on RPMI-8226 leukemia, in the assay with NCI-H522 lung, in the assay with NCI-H460 lung, with SK-MEL-5 melanoma and in the assay with HT29 colon was greater than 100 µM in each case. Besides, the TGI with UACC-62 melanoma and in the assay on SK-MEL-2 melanoma was greater than 100 µM each time.

For `CC(C)(C)C#COC(=O)c1ccccc1`, the TGI in the assay on 786-0 renal, with RPMI-8226 leukemia, with NCI-H522 lung, with NCI-H460 lung, in the assay on SK-MEL-5 melanoma and in the assay on HT29 colon was greater than 100 µM throughout. The TGI in the assay with UACC-62 melanoma, in the assay on SK-MEL-2 melanoma and with A498 renal was greater than 100 µM throughout.

Regarding `COc1ccc(-c2ccc(C3CC(c4ccccc4)=NN3)o2)c([N+](=O)[O-])c1` (stereo not given), the GI50 in the assay on 786-0 renal was 60.6 µM; in the assay on RPMI-8226 leukemia, 31 µM; in the assay on NCI-H522 lung, 58.4 µM; in the assay with NCI-H460 lung, 36.5 µM; in the assay on HT29 colon, 51.3 µM; with UACC-62 melanoma, 67.7 µM. In addition, in the assay on A498 renal, the GI50 is 68.4 µM. Also, the TGI in the assay on 786-0 renal, in the assay with RPMI-8226 leukemia, with NCI-H522 lung, in the assay with NCI-H460 lung, in the assay on HT29 colon and in the assay on UACC-62 melanoma was greater than 100 µM throughout. This compound came in with a TGI with A498 renal greater than 100 µM.

Regarding `O=c1c2cccnc2ncn1CCCN1CCCCC1`, the TGI with 786-0 renal, in the assay with NCI-H522 lung, in the assay with NCI-H460 lung, with SK-MEL-5 melanoma, in the assay on HT29 colon and in the assay on UACC-62 melanoma was greater than 100 µM in each case. This compound registered a TGI with SK-MEL-2 melanoma greater than 100 µM.

In the case of `CCOc1ccc(NC(=O)/C(CC(=O)c2c[n+](=O)c3ccccc3n2[O-])=N\OCCCc2ccccc2)cc1`, the TGI in the assay with 786-0 renal, in the assay with RPMI-8226 leukemia, in the assay with NCI-H522 lung, in the assay on NCI-H460 lung, in the assay with HT29 colon and in the assay on UACC-62 melanoma was greater than 100 µM throughout. Also, the TGI with SK-MEL-2 melanoma and in the assay on A498 renal was greater than 100 µM in each case.

With `O=C1CC23CCCCCCCCCCC2(C1)CC(=O)C3` (stereo not given), the TGI was greater than 100 µM in the assay on 786-0 renal; 45.4 µM with RPMI-8226 leukemia; 45 µM in the assay with NCI-H522 lung; greater than 100 µM in the assay with NCI-H460 lung; 32.4 µM with SK-MEL-5 melanoma; 37.2 µM with HT29 colon. In the assay with SK-MEL-2 melanoma, this compound displayed a TGI of 42.9 µM.

A word on the GI50: it is the concentration at which growth is held to half of that of the control. Usually TGI stands for the concentration at which net growth stops.
